{"source": "paper PMC4949444", "about": "(Scientific Reports, 2016)", "key": {"N2a cells [1]": {"test_system": "N2a cells", "assay": "Reactive oxygen species production in N2a cells (CM-H2DCFDA)", "format": "cell-based", "conditions": "2 hours", "procedure": "Determination of ROS: N2a cells were seeded at 25x 10^3 cells/ml in 96-well plates and incubated with 0.25 ȝM 5-(and-6 )-chloro meth yl-2ƍ,7ƍ-dichlorodihydrofluorescein diacetate acet yl ester (C M-H 2 DCFDA) for 20 minutes at 37°C. Then, the cells were treated with either VCE-003 or VCE-003.2 for 2 hours. Cells exposed to pro-oxidant tert-Butyl h ydroperoxide (TBHP) were used as positive control. H 2 DCFDA oxidation was detected using an Incuc yteTM Live-Cell Imaging S ystem (Hertfordshire, UK).\nSupplementary Figure S1. Non-elect rophilic activity for VCE-003.2. (a) Reactive ox ygen species production. N2a cells were stained with CM-H2DCFDA and treated with VCE-003 or VCE-003.2 for 2 hours. Then, reactive ox ygen sp ecies were measured b y In cu c yt e TM Liv e-Cell Im agin g S ystem. Results are ex pressed as m ean of t otal integrated intensity (ROS positive cells) ± S.D. (b) Effect on Nrf2 transcriptional activity.\nVCE-003 treatment vers us Vehicle treated cells."}, "N2a cells [2]": {"test_system": "N2a cells", "assay": "Glutamate-induced excitotoxicity in N2a cells (MTT)", "format": "cell-based", "conditions": "15 mM glutamate 24 h", "procedure": "Figure 1 VCE-003.2 synthesis and characterization. (a) Schematic representation of VCE-003.2 synthesis. […] The indicated concentrations were tested and results were plotted to obtain the polynomial trend on a logarithmic range. IC50 values are indicated within the graph. […]. HEK293 cells were co-transfected with GAL4-PPARγ and GAL4-luc and incubated with the indicated compound concentrations for 6 hours prior to luciferase activity determination. Results are expressed as the fold induction ± S.D. relative to untreated control. (d) N2a cells were incubated with VCE-003 and VCE-003.2 as indicated during 24 hours and cell viability was determined by the MTT assay. Results are expressed as percentage of cell viability against the negative control (100%). (e) N2a cells were pre-treated with the compounds for 30 min and incubated during 24 h with 15 mM glutamate and cell viability determined by MTT. Results are expressed as percentage of cell viability against the negative control (100%). All experiments are shown as mean ± S.D. from at least three independent experiments. Statistics: *^,#,†p < 0.05, **^,##,††p < 0.01 and ***^,###p < 0.001. […] | Briefly, N2a cells were seeded at a density of 1 × 10^3 cells/well in 96-well plates, treated with increasing concentrations of VCE-003 or VCE-003.2 for 24 hours and cell viability was measured by the MTT method. […]. […]"}, "PPARγ": {"test_system": "PPARγ", "format": "cell-based", "conditions": "HEK293, GAL4-PPARγ + GAL4-luc, 6 hours", "quoted_text": "The indicated concentrations were tested and results were plotted to obtain the polynomial trend on a logarithmic range. IC50 values are indicated within the graph. […] HEK293 cells were co-transfected with GAL4-PPARγ and GAL4-luc and incubated with the indicated compound concentrations for 6 hours prior to luciferase activity determination. Results are expressed as the fold induction ± S.D. relative to untreated control. […] All experiments are shown as mean ± S.D. from at least three independent experiments. Statistics: *^,#,†p < 0.05, **^,##,††p < 0.01 and ***^,###p < 0.001. […] To study PPARγ transcriptional activity HEK293 cells were seeded in 24-well plates and transiently co-transfected with the expression vector GAL4-PPARγ and the luciferase reporter vector GAL4-luc using Roti-Fect (Carl Roth, Karlsruhe, Germany) following the manufacturer’s instructions. To correct for transfection efficacy, 100 ng Renilla luciferase (pRL-CMV) was also cotransfected. After stimulation, the luciferase activities were quantified using Dual-Luciferase Assay (Promega, Madison, WI, USA)."}, "[3]": {"test_system": "Human mesenchymal stem cells (MSC)", "assay": "Adipogenic differentiation of human mesenchymal stem cells", "format": "cell-based", "text": "Figure 2 Effect of VCE-003.2 on adipogenic differentiation. Human mesenchymal stem cells (MSC) were differentiated in adipogenic medium (AM) in the presence of RZG or […] VCE-003.2 and adipogenic markers were characterized. (a) Quantification of oil red (ORO) positive cells after 21 days of differentiation. (b) Representative images of accumulated fat vesicles stained with oil red (Bar size, 50 μm). (c) Gene expression of PPAR-γ2, LPL, CEBPA, ADIPOQ and FABP4 in MSCs differentiated during 18 days. Data represent the percentage of increase over AM considered as the 100% of adipogenic induction. Experiments were performed from three different human MSC preparations each one obtained from a different bone marrow sample.\nReina Sofia University Hospital review board."}, "CB1 receptor": {"biological_target": "T1, CB1 receptor (Homo sapiens, UniProt P21554)", "T1 construct": "purchased Perkin-Elmer Life and Analytical Sciences, Boston, MA; host or cells: HEK293 EBNA cells stably expressing the receptor", "T1 sequence (P21554 whole entry)": "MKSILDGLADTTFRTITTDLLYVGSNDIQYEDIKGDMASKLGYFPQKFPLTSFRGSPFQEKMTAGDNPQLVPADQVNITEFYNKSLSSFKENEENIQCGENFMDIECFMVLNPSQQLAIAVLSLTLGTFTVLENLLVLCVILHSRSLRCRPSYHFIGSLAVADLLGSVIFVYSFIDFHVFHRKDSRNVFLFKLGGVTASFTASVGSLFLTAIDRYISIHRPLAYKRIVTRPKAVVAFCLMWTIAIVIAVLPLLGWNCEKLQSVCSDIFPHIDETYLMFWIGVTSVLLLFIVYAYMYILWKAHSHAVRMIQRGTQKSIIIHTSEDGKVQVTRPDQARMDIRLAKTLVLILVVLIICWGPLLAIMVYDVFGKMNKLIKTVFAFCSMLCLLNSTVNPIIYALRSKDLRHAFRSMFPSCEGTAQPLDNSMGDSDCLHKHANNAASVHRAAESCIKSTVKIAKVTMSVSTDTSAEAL", "assay": "CB1 receptor binding, [3H]CP55940 competition", "conditions": "data not shown; read-out: predicted Ki, CB1 receptor", "procedure": "CB1 and CB2 receptor binding affinities were determined by competition studies using [^3H]CP55940 as radioligand and commercial membrane preparations of HEK293 EBNA cells stably expressing the respective receptor type (Perkin-Elmer Life and Analytical Sciences, Boston, MA), following a procedure previously described."}}}
{"compound": "CCCCCC1=C(NCC)C(=O)C(C/C=C(\\C)CCC=C(C)C)=C(O)C1=O", "note": "[VCE-003.2]", "values": [{"measurement": "induction of reactive oxygen species (ROS)", "setting": "N2a cells [1]", "value": "none of these bioactivities were induced"}, {"measurement": "prevention of glutamate-induced excitotoxicity", "setting": "N2a cells [2]", "value": "able to prevent excitotoxicity induced by glutamate"}, {"measurement": "PPARγ transcriptional activity (transactivation)", "setting": "PPARγ", "value": "induced PPARγ transactivation in a concentration-dependent manner"}, {"measurement": "percentage of Oil Red O positive cells", "setting": "[3]; 1 and 2.5 μM vs 1 μM RZG, adipogenic medium, 21 days", "value": "never achieved the percentage of Oil Red O positive cells (ORO^+) induced by RZG"}, {"measurement": "lipid droplets (morphological examination)", "setting": "[3]; compared to RZG", "value": "lipid droplets are less numerous and smaller"}, {"measurement": "expression of adipogenic differentiation markers PPARγ, LPL, CEBPA, ADIPOQ, FABP4", "setting": "[3]; compared to cells treated with RZG", "value": "sensibly lower"}, {"measurement": "Ki", "setting": "CB1 receptor", "value": "> 40", "unit": "µM"}]}
